Experimental data: ChEMBL document CHEMBL5725356, “Anti-fibrotic pyridinones” (2017)

Experiment: ET-1 Assay: Fibroblasts (primary human lung and dermal, HFL-1, 3T3 etc) are seeded in 96-well plates at ~15000 cells/well and serum starved for 0-48 hours. After media exchange, compounds serially diluted in DMSO are added to the cells. After a brief incubation of ~30 min, stimulants (TGFb, serum, LPA etc) are added followed by further incubation for 16-48 hours. Media is then harvested and stored frozen in plate format for later endothelin-1 (ET-1) determination by ELISA. Toxicity measurements are made using the ATPlite kit (Perkin-Elmer). ET-1 is quantified using an ELISA kit (R&D Systems). The amount of ET-1 produced in the assay wells are back-calculated using the ELISA standard. The ability of a compound to inhibit ET-1 production is typically analyzed by fitting dose-response curves to a 4-parameter logistic function to obtain an EC50 value.
Conditions: HFL1

| SMILES | EC50 |
| --- | --- |
| Cc1cc(=O)n(-c2ccc(OC(F)(F)F)cc2)cc1-c1ccc(Cl)c(Cl)c1 | in the range around 125 µM |
| Cc1cc(=O)n(-c2ccc(OC(F)(F)F)cc2C)cc1-c1ccc(F)cc1 | < 50 µM |
| Cc1cc(=O)n(-c2ccccc2F)cc1-c1ccc(F)cc1 | in the range around 125 µM |
| Cc1cc(=O)n(-c2ccc(OC(F)(F)F)cc2)cc1-c1cccnc1 | > 200 µM |
| O=c1ccc(Br)cn1-c1ccc(Cl)cc1 | > 200 µM |
| CCn1nc2c(-c3cnn(C)c3)cn(-c3ccc(OC(F)(F)F)cc3)c(=O)c2n1 | < 50 µM |
| CCOc1ccc(-n2cc(-c3cnn(C)c3)c(OCCOC(C)C)cc2=O)c(C)c1 | in the range around 125 µM |
| Cc1cc(=O)n(-c2ccc3c(c2)OCO3)cc1-c1cnn(C)c1 | > 200 µM |
| Cc1cc(=O)n(-c2cccc3c2OCCO3)cc1-c1ccc(F)cc1 | in the range around 125 µM |
| O=c1ccc(-c2ccccc2)cn1-c1ccccc1Cl | in the range around 125 µM |
| CS(=O)(=O)n1cc(-c2ccc(=O)n(-c3ccccc3)c2)cn1 | > 200 µM |
| COc1cc(-n2cc(-c3cnn(C)c3)c(C)cc2=O)cc(OC)c1OC | > 200 µM |
| Cn1cc(-c2cn(-c3ccc(OC(F)(F)F)cc3)c(=O)cc2NCc2cncnc2)cn1 | < 50 µM |
| Cn1cc(-c2cn(-c3ccc(OC(F)(F)F)cc3)c(=O)c3nn(CCF)nc23)cn1 | < 50 µM |
| Cn1cc(-c2cn(-c3ccc(OC(F)(F)F)cc3)c(=O)cc2NCc2cnccn2)cn1 | in the range around 125 µM |
| Cc1cc(=O)n(-c2ccc(NC(N)=O)cc2)cc1-c1ccc(F)cc1 | in the range around 125 µM |
| CCOc1ccc(-n2cc(-c3cn[nH]c3)c3ccn(C)c3c2=O)c(C)c1 | < 50 µM |
| O=c1ccc(-c2cn[nH]c2)cn1-c1cccc(F)c1 | > 200 µM |
| CCOc1ccc(-n2cc(-c3cccc(Cl)c3)ccc2=O)c(C)c1 | < 50 µM |
| Cc1ccc2c(c1)CC(=O)N2c1ccc(OC(F)(F)F)cc1 | > 200 µM |
| COc1cc(=O)n(-c2ccc(OC(F)(F)F)cc2)cc1-c1ccc(F)cc1 | > 200 µM |
| CCOc1ccc(-n2cc(-c3cnn(C)c3)c(OCCOC)cc2=O)c(C)c1 | < 50 µM |
| Cc1cc(=O)n(-c2ccc(OC(F)(F)F)cc2)cc1-c1ccc2c(c1)OC(F)(F)O2 | in the range around 125 µM |
| Cc1ccc(=O)n(-c2ccccc2)n1 | > 200 µM |
| O=C1COc2c(-c3ccc(F)cc3)cn(-c3ccc(OC(F)(F)F)cc3)c(=O)c2N1 | > 200 µM |

| SMILES | EC50 |
| --- | --- |
| CCn1cnc2c(-c3cnn(C)c3)cn(-c3ccc(OC(F)(F)F)cc3)c(=O)c21 | < 50 µM |
| O=C1COc2c(-c3ccc(F)cc3)cn(-c3ccc(OC(F)(F)F)cc3)c(=O)c2N1Cc1ccccc1 | > 200 µM |
| Cn1cc(-c2cn(-c3ccc(OC(F)(F)F)cc3)c(=O)c3cccnc23)cn1 | < 50 µM |
| COCCn1ccc2c(-c3cnn(C)c3)cn(-c3ccc(OC(F)(F)F)cc3)c(=O)c21 | < 50 µM |
| Cc1cc(=O)n(-c2ccccc2)cc1-c1ccc(F)cc1 | in the range around 125 µM |
| Cc1cc(=O)n(-c2ccc(OC(F)(F)F)cc2)cc1-c1cccc2c1OC(F)(F)O2 | < 50 µM |
| Cc1n[nH]c(C)c1-c1ccc(=O)n(-c2ccc(F)cc2)c1 | > 200 µM |
| Cc1nc2c(=O)n(-c3ccc(OC(F)(F)F)cc3)ccc2o1 | > 200 µM |
| Cc1ccc(-n2cc(-c3ccc(F)cc3)c(C)cc2=O)cc1 | in the range around 125 µM |
| CC(=O)c1ccc(=O)n(-c2ccc(OC(C)C)cc2)c1 | > 200 µM |
| CCOC(=O)n1cc(-c2ccc(=O)n(-c3ccccc3)c2)cn1 | < 50 µM |
| CC(=O)Nc1cccc(-n2cc(-c3ccc(F)cc3)c(C)cc2=O)c1 | > 200 µM |
| CCOc1ccc(-n2cc(-c3cn[nH]c3)c3nccnc3c2=O)c(C)c1 | < 50 µM |
| Cc1cc(=O)n(-c2ccc(OC(F)(F)F)cc2)cc1-c1cccc2c1OCCO2 | < 50 µM |
| O=c1ccc(Br)cn1-c1ccc(OC(F)(F)F)cc1 | > 200 µM |
| Cc1cc(=O)n(-c2ccc(OC(F)(F)F)cc2)cc1-c1cccc2scnc12 | > 200 µM |
| O=c1cc(O)c(-c2ccc(F)cc2)cn1-c1ccc(OC(F)(F)F)cc1 | in the range around 125 µM |
| CCOC(=O)Nc1cccc(-n2cc(-c3ccc(F)cc3)c(C)cc2=O)c1 | < 50 µM |
| CC(C)OC(=O)Nc1cc(=O)n(-c2ccc(OC(F)(F)F)cc2)cc1-c1ccc(F)cc1 | > 200 µM |
| Cn1cc(-c2cn(-c3ccc(Cl)cc3)c(=O)c3[nH]ccc23)cn1 | < 50 µM |
| Cc1ccc(=O)n(-c2cc(F)c(F)c(F)c2)c1 | > 200 µM |
| Cc1cn(C)c2c(=O)n(-c3ccc(OC(F)(F)F)cc3)cc(-c3ccc(F)cc3)c12 | < 50 µM |
| CCn1ccc2c(=O)n(-c3ccc(OC(F)(F)F)cc3)cc(-c3cnn(C)c3)c21 | < 50 µM |
| Cc1ccc(=S)n(-c2ccc(OC(C)C)cc2)c1 | > 200 µM |
| CC(=O)c1ccc(=O)n(-c2cccc(C(F)(F)F)c2)c1 | > 200 µM |

| SMILES | EC50 |
| --- | --- |
| Cc1cc(=O)n(-c2ccc(OC(F)(F)F)cc2)cc1-c1ccc(Cl)c(F)c1 | in the range around 125 µM |
| O=C1Cc2ccccc2N1c1ccc(OC(F)(F)F)cc1 | in the range around 125 µM |
| Cc1cc(=O)n(-c2ccc(OC(F)(F)F)cc2)cc1-c1cccc2c1OCO2 | < 50 µM |
| CCOc1ccc(-n2cc(-c3cccc(F)c3)c(C)cc2=O)c(C)c1 | in the range around 125 µM |
| Cc1cc(=O)n(-c2cccc(C(F)(F)F)c2)cc1-c1cnn(C)c1 | > 200 µM |
| CN1C(=O)COc2c(-c3cnn(C)c3)cn(-c3ccc(OC(F)(F)F)cc3)c(=O)c21 | > 200 µM |
| Cn1cnc2c(-c3ccc(F)cc3)cn(-c3ccc(OC(F)(F)F)cc3)c(=O)c21 | < 50 µM |
| Cn1cc(-c2cn(-c3ccc(OC(F)(F)F)cc3)c(=O)c3ccc(C(F)(F)F)nc23)cn1 | < 50 µM |
| CC(=O)Nc1cccc(-n2cc(-c3cn[nH]c3)c(C)cc2=O)c1 | > 200 µM |
| Cc1cc(=O)n(-c2ccc(OC(F)(F)F)cc2)cc1-c1cccc2c1OC(C)(C)O2 | in the range around 125 µM |
| Cc1cc(=O)n(-c2ccc(OC(F)(F)F)cc2)cc1-c1cn[nH]c1 | < 50 µM |
| CCn1c(=O)oc2ccc(-c3c[nH]c(=O)cc3C)cc21 | < 50 µM |
| Cc1cc(=O)n(-c2ccc(OC(F)(F)F)cc2)cc1-c1ccc(F)cc1 | > 200 µM |
| CC(=O)Nc1cccc(-n2cc(C(C)=O)ccc2=O)c1 | > 200 µM |
| Cn1cc(-c2cn(-c3ccc(OC(F)(F)F)cc3)c(=O)c3nnn(CCF)c23)cn1 | < 50 µM |
| COc1ccc(-c2ccc(=O)n(-c3ccccc3Cl)c2)cc1 | in the range around 125 µM |
| CC(C)C(=O)Nc1cc(=O)n(-c2ccc(OC(F)(F)F)cc2)cc1-c1ccc(F)cc1 | > 200 µM |
| CC(C)c1cc(=O)n(-c2ccc(OC(F)(F)F)cc2)cc1-c1cnn(C)c1 | in the range around 125 µM |
| Cn1cc(-c2cnc(=O)n(-c3ccccc3)c2)cn1 | > 200 µM |
| Cc1cc(=O)n(-c2ccc(OC(F)(F)F)cc2)cc1-c1ccc2ocnc2c1 | < 50 µM |
| O=c1c2ccc(C(F)(F)F)nc2c(-c2ccc(F)cc2)cn1-c1ccc(OC(F)(F)F)cc1 | > 200 µM |
| CC(C)OC(=O)Nc1cc(=O)n(-c2ccc(OC(F)(F)F)cc2)cc1-c1cnn(C)c1 | > 200 µM |
| Cc1cc(=O)n(-c2cccc(NC(N)=O)c2)cc1-c1cnn(C)c1 | < 50 µM |
| O=c1ccc(-c2ccc(F)cc2)cn1Cc1ccccc1 | < 50 µM |
| Cn1cc(-c2cn(-c3ccc(OC(F)(F)F)cc3)c(=O)cc2OCCN2CCOCC2=O)cn1 | in the range around 125 µM |

| SMILES | EC50 |
| --- | --- |
| O=c1c2[nH]nnc2c(-c2cn[nH]c2)cn1-c1ccc(OC(F)(F)F)cc1 | in the range around 125 µM |
| CCOc1ccc(-n2cc(-c3cnn(C)c3)c(NCc3ccc(C#N)cc3)cc2=O)c(C)c1 | < 50 µM |
| Cc1cc(=O)n(-c2ccc(OC(F)(F)F)cc2)cc1-c1ccc2c(c1)NC(=O)CO2 | < 50 µM |
| O=c1cc2ccccc2cn1-c1ccccc1 | in the range around 125 µM |
| O=c1ccc(-c2cccc(Cl)c2)cn1-c1ccccc1F | in the range around 125 µM |
| CCOc1ccc(-n2cc(-c3ccccc3)c(C)cc2=O)c(C)c1 | in the range around 125 µM |
| CCOc1ccc(-n2cc(-c3cn[nH]c3)c3ncccc3c2=O)c(C)c1 | < 50 µM |
| Cc1cc(=O)n(-c2ccc(Cl)cc2)cc1-c1ccc2scnc2c1 | in the range around 125 µM |
| Cc1cc(=O)n(-c2ccc3c(c2)OCO3)cc1-c1ccc(F)cc1 | > 200 µM |
| COc1cccc(-n2cc(-c3c(C)n[nH]c3C)ccc2=O)c1 | in the range around 125 µM |
| Cn1cc(-c2cn(-c3ccc(OC(F)(F)F)cc3)c(=O)c3ncn(C)c23)cn1 [AKEX-0011] | < 50 µM |
| O=c1c2[nH]ccc2ccn1-c1ccc(OC(F)(F)F)cc1 | < 50 µM |
| Cn1cc(-c2cn(-c3ccc(OC(F)(F)F)cc3)c(=O)cc2C#N)cn1 | < 50 µM |
| Cn1cc(-c2cn(-c3ccc(OC(F)(F)F)cc3)c(=O)cc2OCCN2CCCC2=O)cn1 | > 200 µM |
| COc1cccc(-n2cc(-c3ccc(S(N)(=O)=O)cc3)ccc2=O)c1 | > 200 µM |
| COc1ccc(-n2cc(C)ccc2=S)cc1 | > 200 µM |
| COc1ccc(-n2cc(-c3ccc(S(N)(=O)=O)cc3)ccc2=O)cc1 | > 200 µM |
| Cn1cc(-c2cn(-c3ccc(OC(F)(F)F)cc3)c(=O)cc2C(F)(F)F)cn1 | > 200 µM |
| O=c1c2nccnc2c(-c2cn[nH]c2)cn1-c1ccc(OC(F)(F)F)cc1 | < 50 µM |
| O=C1CNCCN1CCOc1cc(=O)n(-c2ccc(OC(F)(F)F)cc2)cc1-c1ccc(F)cc1 | > 200 µM |
| Cc1n[nH]c(C)c1-c1ccc(=O)n(-c2ccc(Cl)cc2)c1 | > 200 µM |
| Cn1cc(-c2cn(-c3ccc(OC(F)(F)F)cc3)c(=O)cc2NCc2ccc(C#N)cc2F)cn1 | < 50 µM |
| Cc1nc2c(=O)n(-c3ccc(OC(F)(F)F)cc3)cc(-c3ccc(F)cc3)c2o1 | > 200 µM |
| O=c1c2cccnc2c(-c2cn[nH]c2)cn1-c1ccc(OC(F)(F)F)cc1 | > 200 µM |
| CCn1cc(-c2cn(-c3ccc(OC(F)(F)F)cc3)c(=O)c3c2ncn3CC)cn1 | < 50 µM |
